What was measured:
[1] = system: PSMA+ PC3 PIP cells; test: Clonogenic survival assay; type: cell-based, human; settings: 48 h treatment at 37 °C
Procedure: Cells (200–1000) were seeded in 60 mm culture dishes. Each radioligand (^177Lu-L1, ^177Lu-Alb-L2, ^177Lu-Alb-L5) was diluted in a prewarmed medium at different concentrations (0, 0.37, 1.85, 3.7, 18.5, 37, 185, and 370 kBq/mL) and incubated with the cells for 48 h, as we previously reported. The radiolabeled compound was replaced with fresh medium, and cells were incubated for 2 weeks or until colonies had at least 50 cells. The colonies were stained with crystal violet and counted, and the surviving fraction was normalized to the control plating efficiency, as previously described.

[2] = system: patients with metastatic castration-resistant prostate cancer; set-up: method as in PMID 34161051, PMID 34385339; settings: treatment group of randomized patients; cited from earlier work
[3] = system: patients; set-up: method as in PMID 32949253; settings: than 177Lu-EB-PSMA-617 and 177Lu-PSMA-ALB-56; clinical studies; cited from earlier work

For `O=C(O)CCC(NC(=O)NC(CCCCN(Cc1ccc(Br)cc1)C(=O)CCCCNC(=O)CN1CCN(CC(=O)O)CCN(CC(=O)O)CCN(CC(=O)O)CC1)C(=O)O)C(=O)O` (stereo not shown) [177Lu-L1, metal not drawn], the “Activity to reduce cell survival to 37% (A0)” value [1] was 18.5 kBq/mL and the “Concentration of radioactivity for complete cell killing” value [1] was 370 kBq/mL.
For `O=C([O-])CN1CCN(CC(=O)[O-])CCN(CC(=O)NCC2CCC(C(=O)N[C@@H](Cc3ccc4ccccc4c3)C(=O)NCCCC[C@H](NC(=O)N[C@@H](CCC(=O)O)C(=O)O)C(=O)O)CC2)CCN(CC(=O)[O-])CC1.[177Lu+3]` (stereo partly shown) [177Lu-PSMA-617], the Median overall survival [2] is given as 15.3 months and the “Kidney-absorbed dose, fold lower” value [3] is given as ~ 4 fold.

From article PMC10459686, “Preclinical Evaluation of a New Series of Albumin-Binding ^177Lu-Labeled PSMA-Based Low-Molecular-Weight Radiotherapeutics” (Molecules, 2023)
